From ChEMBL document CHEMBL1909046, “DrugMatrix in vitro pharmacology data”

Columns and labels:
[1] = DRUGMATRIX: Glutamate, Kainate radioligand binding (ligand: [3H] Kainic acid); format: cell membranes, Rattus norvegicus, Wistar, Brain, Membrane; conditions: Not Active = under 50% inhibition at 10 µM
Leukotriene C4 synthase = biological target: T1, Leukotriene C4 synthase (Cavia porcellus, UniProt A6XA80); test: biochemical; format: tissue-based, Lung;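 note: enzyme inhibition assay of leukotriene C4 synthase, using LTA4 as the substrate; in other assays of this panel Not Active means under 50% inhibition at 10 µM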
T1 sequence (A6XA80 whole entry): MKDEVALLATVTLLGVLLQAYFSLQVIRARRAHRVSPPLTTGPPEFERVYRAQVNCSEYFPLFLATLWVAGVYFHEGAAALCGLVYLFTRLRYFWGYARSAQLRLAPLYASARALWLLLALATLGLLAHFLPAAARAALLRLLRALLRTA

[2] = DRUGMATRIX: Nicotinic Acetylcholine radioligand binding (ligand: [125I] Epibatidine); format: cell membranes, Membrane; conditions: imr-32; Not Active = under 50% inhibition at 10 µM
[3] = biological target: T2, Nitric oxide synthase, inducible (Mus musculus, UniProt P29477); parameters: species or system Escherichia coli;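 note: inhibition of iNOS enzyme activity measured with L-arginine as substrate; in other assays of this panel Not Active means under 50% inhibition at 10 µM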
T2 sequence (P29477 whole entry): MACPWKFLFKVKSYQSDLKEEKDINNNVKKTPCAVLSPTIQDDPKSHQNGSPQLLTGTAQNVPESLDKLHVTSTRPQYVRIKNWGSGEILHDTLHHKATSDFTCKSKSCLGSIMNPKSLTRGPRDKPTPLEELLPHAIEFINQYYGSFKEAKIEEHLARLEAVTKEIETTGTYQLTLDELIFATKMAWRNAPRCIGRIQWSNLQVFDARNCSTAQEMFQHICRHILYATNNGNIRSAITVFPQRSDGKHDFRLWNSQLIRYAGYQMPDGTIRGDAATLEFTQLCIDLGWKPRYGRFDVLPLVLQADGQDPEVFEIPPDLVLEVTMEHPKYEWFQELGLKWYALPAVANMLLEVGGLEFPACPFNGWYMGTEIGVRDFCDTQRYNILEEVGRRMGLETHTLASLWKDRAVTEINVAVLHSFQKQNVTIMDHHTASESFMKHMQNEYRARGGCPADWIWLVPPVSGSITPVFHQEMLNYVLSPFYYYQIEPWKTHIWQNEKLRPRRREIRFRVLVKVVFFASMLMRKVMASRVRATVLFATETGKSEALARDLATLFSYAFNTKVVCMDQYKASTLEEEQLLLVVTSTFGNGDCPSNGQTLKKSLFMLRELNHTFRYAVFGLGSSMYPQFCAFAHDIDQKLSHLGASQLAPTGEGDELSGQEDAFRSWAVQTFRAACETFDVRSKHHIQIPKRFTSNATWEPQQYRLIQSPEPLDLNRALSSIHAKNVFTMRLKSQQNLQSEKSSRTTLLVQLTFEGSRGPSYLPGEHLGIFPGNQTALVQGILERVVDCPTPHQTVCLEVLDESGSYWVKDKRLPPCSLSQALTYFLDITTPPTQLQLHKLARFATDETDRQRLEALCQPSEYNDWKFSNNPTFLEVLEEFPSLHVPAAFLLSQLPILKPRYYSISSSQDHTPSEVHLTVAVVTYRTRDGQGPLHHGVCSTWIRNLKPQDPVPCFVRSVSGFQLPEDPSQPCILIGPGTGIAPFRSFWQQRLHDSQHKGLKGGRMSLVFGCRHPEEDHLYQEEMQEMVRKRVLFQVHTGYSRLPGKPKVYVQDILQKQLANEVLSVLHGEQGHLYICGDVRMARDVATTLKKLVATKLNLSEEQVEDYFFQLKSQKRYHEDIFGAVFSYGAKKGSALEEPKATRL

[4] = biological target: Protein kinase C alpha type (Homo sapiens, UniProt P17252); format: cell-based; conditions: sf9;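 note: inhibition of PKCalpha kinase activity measured in an enzyme assay with histone as the phosphorylation substrate; in other assays of this panel Not Active means under 50% inhibition at 10 µM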
Cytochrome P450 1A2 = biological target: T3, Cytochrome P450 1A2 (Homo sapiens, UniProt P05177); conditions: bti-tn-5b1-4; note: in other assays of this panel Not Active means under 50% inhibition at 10 µM
T3 sequence (P05177 whole entry): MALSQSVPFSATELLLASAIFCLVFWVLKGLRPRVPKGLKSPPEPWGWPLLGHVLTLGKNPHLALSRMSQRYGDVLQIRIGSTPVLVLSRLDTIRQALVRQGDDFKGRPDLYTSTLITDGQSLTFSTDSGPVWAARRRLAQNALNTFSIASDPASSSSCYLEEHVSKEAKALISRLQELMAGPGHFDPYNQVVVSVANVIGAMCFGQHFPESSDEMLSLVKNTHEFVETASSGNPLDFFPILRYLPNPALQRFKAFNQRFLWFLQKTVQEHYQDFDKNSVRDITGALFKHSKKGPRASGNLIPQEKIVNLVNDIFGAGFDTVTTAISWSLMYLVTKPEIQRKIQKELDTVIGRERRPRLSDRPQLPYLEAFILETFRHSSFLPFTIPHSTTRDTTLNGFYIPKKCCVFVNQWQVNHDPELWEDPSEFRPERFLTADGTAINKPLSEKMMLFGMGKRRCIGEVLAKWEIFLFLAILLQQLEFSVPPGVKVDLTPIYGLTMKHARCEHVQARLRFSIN

CN(C)CCCC1(c2ccc(F)cc2)OCc2cc(C#N)ccc21 (configuration not stated) [CITALOPRAM]
Not Active: IC50 [1] | Ki [1] | IC50 (Leukotriene C4 synthase) | IC50 [2] | Ki [2] | IC50 [3] | IC50 [4] | IC50 (Cytochrome P450 1A2) | Ki (Cytochrome P450 1A2)

COC(=O)[C@H](c1ccccc1Cl)N1CCc2sccc2C1 [CLOPIDOGREL]
Not Active: IC50 [1] | Ki [1] | IC50 (Leukotriene C4 synthase) | IC50 [2] | Ki [2] | IC50 [3] | IC50 [4] | IC50 (Cytochrome P450 1A2) | Ki (Cytochrome P450 1A2)

C[C@]12CCC(=O)C=C1CC[C@@H]1[C@@H]2C(=O)C[C@@]2(C)[C@H]1CC[C@]2(O)C(=O)CO [CORTISONE]
Not Active: IC50 [1] | Ki [1] | IC50 (Leukotriene C4 synthase) | IC50 [2] | Ki [2] | IC50 [3] | IC50 [4] | IC50 (Cytochrome P450 1A2) | Ki (Cytochrome P450 1A2)

Cc1ccccc1N1CCN(CCc2nnc3n2CCCC3)CC1 [DAPIPRAZOLE]
Not Active: IC50 [1] | Ki [1] | IC50 (Leukotriene C4 synthase) | IC50 [2] | Ki [2] | IC50 [3] | IC50 [4] | IC50 (Cytochrome P450 1A2) | Ki (Cytochrome P450 1A2)

CC1=Nc2ccc(Cl)cc2S(=O)(=O)N1 [DIAZOXIDE]
Not Active: IC50 [1] | Ki [1] | IC50 (Leukotriene C4 synthase) | IC50 [2] | Ki [2] | IC50 [3] | IC50 [4] | IC50 (Cytochrome P450 1A2) | Ki (Cytochrome P450 1A2)

CC(=O)OCC(=O)[C@@]1(OC(C)=O)[C@@H](C)C[C@H]2[C@@H]3C[C@H](F)C4=CC(=O)C=C[C@]4(C)[C@@]3(F)[C@@H](O)C[C@@]21C [DIFLORASONE DIACETATE]
Not Active: IC50 [1] | Ki [1] | IC50 (Leukotriene C4 synthase) | IC50 [2] | Ki [2] | IC50 [3] | IC50 [4] | IC50 (Cytochrome P450 1A2) | Ki (Cytochrome P450 1A2)

COc1ccc([C@@H]2Sc3ccccc3N(CCN(C)C)C(=O)[C@@H]2OC(C)=O)cc1 [DILTIAZEM]
Not Active: IC50 [1] | Ki [1] | IC50 (Leukotriene C4 synthase) | IC50 [2] | Ki [2] | IC50 [3] | IC50 [4] | IC50 (Cytochrome P450 1A2) | Ki (Cytochrome P450 1A2)

CCc1ccc(C(=O)C(C)CN2CCCCC2)cc1 (configuration not stated) [EPERISONE]
Not Active: IC50 [1] | Ki [1] | IC50 (Leukotriene C4 synthase) | IC50 [2] | Ki [2] | IC50 [3] | IC50 [4] | IC50 (Cytochrome P450 1A2) | Ki (Cytochrome P450 1A2)

C=C1CC[C@H](O)C/C1=C/C=C1\CCC[C@]2(C)[C@@H]([C@H](C)/C=C/[C@H](C)C(C)C)CC[C@@H]12 [ERGOCALCIFEROL]
Not Active: IC50 [1] | Ki [1] | IC50 (Leukotriene C4 synthase) | IC50 [2] | Ki [2] | IC50 [3] | IC50 [4] | IC50 (Cytochrome P450 1A2) | Ki (Cytochrome P450 1A2)

CN1C[C@H](C(=O)N[C@]2(C)O[C@@]3(O)[C@@H]4CCCN4C(=O)[C@H](Cc4ccccc4)N3C2=O)C=C2c3cccc4[nH]cc(c34)C[C@H]21 [ERGOTAMINE]
Not Active: IC50 [1] | Ki [1] | IC50 (Leukotriene C4 synthase) | IC50 [2] | Ki [2] | IC50 [3] | IC50 [4] | IC50 (Cytochrome P450 1A2) | Ki (Cytochrome P450 1A2)

CCc1cccc2c3c([nH]c12)C(CC)(CC(=O)O)OCC3 (configuration not stated) [ETODOLAC]
Not Active: IC50 [1] | Ki [1] | IC50 (Leukotriene C4 synthase) | IC50 [2] | Ki [2] | IC50 [3] | IC50 [4] | IC50 (Cytochrome P450 1A2) | Ki (Cytochrome P450 1A2)

Cc1c(-c2ccccc2)oc2c(C(=O)OCCN3CCCCC3)cccc2c1=O [FLAVOXATE]
Not Active: IC50 [1] | Ki [1] | IC50 (Leukotriene C4 synthase) | IC50 [2] | Ki [2] | IC50 [3] | IC50 [4] | IC50 (Cytochrome P450 1A2) | Ki (Cytochrome P450 1A2)

Nc1nc(=O)[nH]cc1F [FLUCYTOSINE]
Not Active: IC50 [1] | Ki [1] | IC50 (Leukotriene C4 synthase) | IC50 [2] | Ki [2] | IC50 [3] | IC50 [4] | IC50 (Cytochrome P450 1A2) | Ki (Cytochrome P450 1A2)

O=C1OC2(c3ccc(O)cc3Oc3cc(O)ccc32)c2ccccc21 [FLUORESCEIN]
Not Active: IC50 [1] | Ki [1] | IC50 (Leukotriene C4 synthase) | IC50 [2] | Ki [2] | IC50 [3] | IC50 [4] | IC50 (Cytochrome P450 1A2) | Ki (Cytochrome P450 1A2)

CC(=O)[C@@]1(O)CC[C@H]2[C@@H]3C[C@H](C)C4=CC(=O)C=C[C@]4(C)[C@@]3(F)[C@@H](O)C[C@@]21C [FLUOROMETHOLONE]
Not Active: IC50 [1] | Ki [1] | IC50 (Leukotriene C4 synthase) | IC50 [2] | Ki [2] | IC50 [3] | IC50 [4] | IC50 (Cytochrome P450 1A2) | Ki (Cytochrome P450 1A2)

O=c1[nH]cc(F)c(=O)[nH]1 [FLUOROURACIL]
Not Active: IC50 [1] | Ki [1] | IC50 (Leukotriene C4 synthase) | IC50 [2] | Ki [2] | IC50 [3] | IC50 [4] | IC50 (Cytochrome P450 1A2) | Ki (Cytochrome P450 1A2)

CC(C)n1c(/C=C/C(O)CC(O)CC(=O)O)c(-c2ccc(F)cc2)c2ccccc21 (configuration not stated) [FLUVASTATIN]
Not Active: IC50 [1] | Ki [1] | IC50 (Leukotriene C4 synthase) | IC50 [2] | Ki [2] | IC50 [3] | IC50 [4] | IC50 (Cytochrome P450 1A2) | Ki (Cytochrome P450 1A2)

NCC1(CC(=O)O)CCCCC1 [GABAPENTIN]
Not Active: IC50 [1] | Ki [1] | IC50 (Leukotriene C4 synthase) | IC50 [2] | Ki [2] | IC50 [3] | IC50 [4] | IC50 (Cytochrome P450 1A2) | Ki (Cytochrome P450 1A2)
